Values of other authors as cited in patent publication US6753013B1, “Pharmaceutical composition” (Leo Pharmaceutical Products, Ltd. A/S, priority 1999, dated 2004).

Tested on: psoriatic skin
Conditions: simultaneous application of a steroid, such as betamethasone, onto psoriatic skin

SMILES: C=C1/C(=C\C=C2/CCC[C@]3(C)[C@@H]([C@H](C)/C=C/[C@@H](O)C4CC4)CC[C@@H]23)C[C@@H](O)C[C@@H]1O [calcipotriol]
- Skin irritative side effects: alleviated
